Measured values as given in doi:10.1101/2023.10.24.563883v2 (biorxiv, 2024).

Biological target: T1, LPHN2 (Homo sapiens, UniProt O95490)
T1 sequence (O95490 26-1459): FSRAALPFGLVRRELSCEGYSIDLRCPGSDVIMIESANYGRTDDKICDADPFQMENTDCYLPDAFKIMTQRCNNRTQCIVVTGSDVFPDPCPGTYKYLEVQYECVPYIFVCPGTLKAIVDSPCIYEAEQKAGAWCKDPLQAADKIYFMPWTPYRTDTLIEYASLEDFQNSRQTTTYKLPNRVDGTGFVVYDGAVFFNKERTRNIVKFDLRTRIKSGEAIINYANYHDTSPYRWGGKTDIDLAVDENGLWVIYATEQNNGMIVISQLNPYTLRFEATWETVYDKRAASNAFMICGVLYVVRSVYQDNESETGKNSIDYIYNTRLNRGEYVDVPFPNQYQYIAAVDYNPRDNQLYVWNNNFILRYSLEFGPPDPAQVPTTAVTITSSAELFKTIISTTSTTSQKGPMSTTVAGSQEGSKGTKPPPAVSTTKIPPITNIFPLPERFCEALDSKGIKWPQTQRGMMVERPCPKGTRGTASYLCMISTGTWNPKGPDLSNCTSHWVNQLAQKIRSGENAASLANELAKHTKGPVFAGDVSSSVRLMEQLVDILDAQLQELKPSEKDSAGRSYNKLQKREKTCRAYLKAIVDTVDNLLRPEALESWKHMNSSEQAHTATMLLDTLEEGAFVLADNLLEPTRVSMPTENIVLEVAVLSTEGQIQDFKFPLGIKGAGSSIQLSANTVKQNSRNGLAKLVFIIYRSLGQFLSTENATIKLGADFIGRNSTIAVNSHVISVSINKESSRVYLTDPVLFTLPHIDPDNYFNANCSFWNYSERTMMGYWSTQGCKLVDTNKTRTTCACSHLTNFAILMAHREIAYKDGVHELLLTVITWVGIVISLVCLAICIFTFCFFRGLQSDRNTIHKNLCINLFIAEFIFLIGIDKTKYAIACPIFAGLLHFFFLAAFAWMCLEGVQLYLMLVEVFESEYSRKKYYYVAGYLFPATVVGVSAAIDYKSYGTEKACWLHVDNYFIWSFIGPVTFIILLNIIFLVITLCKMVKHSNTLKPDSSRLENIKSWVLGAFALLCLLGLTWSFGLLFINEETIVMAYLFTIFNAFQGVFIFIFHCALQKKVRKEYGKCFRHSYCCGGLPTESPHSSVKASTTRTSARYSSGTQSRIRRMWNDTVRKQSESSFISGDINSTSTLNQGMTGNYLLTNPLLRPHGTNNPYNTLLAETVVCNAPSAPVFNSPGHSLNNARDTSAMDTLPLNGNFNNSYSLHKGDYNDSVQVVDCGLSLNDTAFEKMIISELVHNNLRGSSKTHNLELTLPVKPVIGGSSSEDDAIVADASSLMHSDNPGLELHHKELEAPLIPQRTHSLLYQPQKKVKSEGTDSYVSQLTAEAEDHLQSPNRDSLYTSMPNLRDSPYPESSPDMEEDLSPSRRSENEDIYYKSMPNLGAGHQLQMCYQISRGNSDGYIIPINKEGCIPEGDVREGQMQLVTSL
Assay: BRET G protein
Format: cell-based

Question: Which EC50 does the source give for COc1ccc(OC)c(NC2=NC(=O)CC(C(=O)Nc3cc(C(F)(F)F)ccc3Cl)S2)c1 (stereo not shown) [D11] here?
Answer: The EC50 was 39.9 ± 16.2 nM.
